The source of these data is patent US12508320B2, “Drug conjugate, pharmaceutical composition and method of treating hepatitis” (SeeCure Taiwan Co., Ltd., priority 2023, dated 2025).

Series [1] concerns HepG2 2.2.15 cells (a cell line that expresses the hepatitis B virus). Put plainly: In vitro cell line evaluation: HBsAg/HBeAg levels in culture media of HepG2 2.2.15 cells (AXSYM system kit). The format is cell-based. Also noted: HBsAg level: unit of the concentration uncertain. The settings on record: 6-9 days of incubation. The method, then: In the following experimental examples, when HepG2 2.2.15 cells (a cell line that expresses the hepatitis B virus) are used, the cells are maintained in Dulbecco's modified Eagle's medium (DMEM) (Gibco BRL, Grand Island, NY, USA) plus 10% fetal bovine serum (Hyclone, Logan, UT, USA), 100U/mL penicillin, […] streptomycin. HepG2.2.15 cells were seeded at the same density and used as a medium control. The experimental group is composed by administering the substance in the concentration specified by the manufacturer. All cultures were grown in humidified incubators at 37° C. and 5% CO2.
HepG2 2.2.15 cells were plated into 12-well microtiter plates. On day zero, the cells were washed several times with PBS and treated with tetracycline-free medium that contained either a test drug or a vehicle control group. Each test compound was screened at one concentration in triplicate. On day 3, day 6 and/or day 9, the medium was removed and replaced with fresh medium containing the compound. Twenty-four hours later, the medium was collected and clarified by centrifugation (Sorvall RT-6000D centrifuge, 1,000 rpm, 5 min). Media of HepG2 2.2.15 cells cultures were harvested at 3—, 6-, and 9-days post-HBV infection, and levels of hepatitis B surface antigen (HBsAg) and hepatitis B e antigen (HBeAg) in culture media were measured using an AXSYM system kit (Abbott Diagnostika).
In experimental example 1, five hepatitis treatment groups were prepared and added to HepG2 2.2.15 cells for evaluation. Group 1 is a control group containing only medium (PBS), whereby no drug compound is added. Group 2 is where a conventional drug Entecavir […] is used alone. Group 3 (CPD-0148) is directed to a compound of formula (IA2) […]. Group 4 (CPD-0150) is directed to a compound of formula (IA3) […]. Group 5 (CPD-0147) is directed to a compound of formula (IA4) […]. After 6-9 days of incubation with the above treatment groups, the levels of hepatitis B surface antigen (HBsAg) were measured using an AXSYM system kit (Abbott Diagnostika), and the results are shown in FIG. 10.
In experimental example 2, eight hepatitis treatment groups were prepared and added to HepG2 2.2.15 cells for evaluation. Group 1 is a control group containing only medium (PBS), whereby no drug compound is added. Group 2 is where a conventional drug Birinapant […] is used alone. Group 3 (CPD-0004) is directed to a compound of formula (IB1) […]. Group 4 (CPD-0030) is directed to a compound of formula (IB7) […]. Group 5 (CPD-0036) is directed to a compound of formula (IB2) […]. Group 6 (CPD-0133) is directed to a compound of formula (IB3) […]. Group 7 (CPD-0142) is directed to a compound of formula (IB4) […]. Group 8 (CPD-0186) is directed to a compound of formula (IB5) […]. After 6-9 days of incubation with the above treatment groups, the levels of hepatitis B surface antigen (HBsAg) were measured using an AXSYM system kit (Abbott Diagnostika), and the results are shown in FIG. 11.
In experimental example 3, thirteen hepatitis treatment groups were prepared and added to HepG2 2.2.15 cells for evaluation. Group 1 is a control group containing only medium (PBS), whereby no drug compound is added. Group 2 (Teno-Int) is where an intermediate of the conventional drug Tenofovir (100 mM; structure shown in first step of FIG. 3) is used alone. Group 3 (CPD-0134) is directed to a compound of formula (IC1) […]. Group 4 (CPD-0136) is directed to a compound of formula (IC2) […]. Group 5 (CPD-0137) is directed to a compound of formula (IC3) (510 mM). Group 6 (CPD-0138) is directed to a compound of formula (IC4) […]. Group 7 (CPD-0139) is directed to a compound of formula (IC5) […]. Group 8 (CPD-0143) is directed to a compound of formula (IC6) […]. Group 9 (CPD-0144) is directed to a compound of formula (IC7) […]. Group 10 (CPD-0149) is directed to a compound of formula (IC8) […]. Group 11 (CPD-0158) is directed to a compound of formula (IC9) […]. Group 12 (CPD-0169) is directed to a compound of formula (IC10) […]. […]

The conditions of series [2]: clinical studies, Birinapant used in combination with HBV drugs such as Tenofovir or Entecavir; cited from earlier work.
The mark [3] stands for this setting: Experimental example 6, HepG2 2.2.15 cells, 100 mM (each), FIG. 15.

For `C=C1[C@H](CO)[C@@H](O)C[C@@H]1n1cnc2c(=O)[nH]c(N)nc21` [Entecavir], the HBsAg level result in series [1] (Experimental example 1, HepG2 2.2.15 cells, 100 (unit uncertain), FIG. 10) is reported as “capable of reducing the HBsAg level as compared with the control”. In series [1] (setting [3]), the HBeAg level entry is “effective in reducing the HBsAg and HBeAg levels as compared with the control”; the HBsAg level entry was “effective in reducing the HBsAg and HBeAg levels as compared with the control”.

`C[C@@H](O)Cn1cnc2c(N)ncnc21` [Teno-Int, (R)-1-(6-amino-9H-purin-9-yl)propan-2-ol]: in series [1] (Experimental example 3, HepG2 2.2.15 cells, 100 mM (IC3: 510 mM), FIG. 12), the HBsAg level entry is listed as “slightly reduced as compared to the control”.

For `CC[C@H](NC(=O)[C@H](C)NC)C(=O)N1C[C@@H](O)C[C@H]1Cc1c(-c2[nH]c3cc(F)ccc3c2C[C@@H]2C[C@H](O)CN2C(=O)[C@H](CC)NC(=O)[C@H](C)NC)[nH]c2cc(F)ccc12` [Birinapant], the side effects entry in series [2] is given as “cranial nerve palsies (or Bell's palsies)”. Further, the HBsAg level result in series [1] (Experimental example 2, HepG2 2.2.15 cells, 500 (unit uncertain), FIG. 11) is recorded as “capable of reducing the HBsAg level as compared with the control”.

Take `CN[C@@H](C)C(=O)N[C@H](C(=O)N1CCC[C@H]1c1nc(C(=O)c2ccc(F)cc2)cs1)C1CCCCC1` [LCL161]: in series [1] (Experimental example 4, HepG2 2.2.15 cells, 500 (unit uncertain), FIG. 13), the HBsAg level result was “capable of reducing the HBsAg level as compared with the control”.
